Results published in patent publication US20060107336A1, “Nonbacterial prostatitis model animal” (priority 2002, published 2006).
Where two headings read alike, the source gives them in different places.

Legend:
[1] = system: prostate tissue of male Wistar rats
Procedure: 18 male Wistar rats at the age of 12-weeks-old were divided into 3 groups (test group, comparative group, and negative control group; 6 rats per group). The right inguinal region of each test group rat was incised under ether anesthesia to expose the prostate. Beneath the prostatic capsule of the right lateral lobe was injected 100 μl of sterilized 0.4 N hydrochloric acid physiological saline (a solution prepared by diluting hydrochloric acid with physiological saline to a concentration of 0.4 N, the same applies hereinbelow). The right inguinal region of each comparative group rat was incised in the same manner under ether anesthesia, and 100 μl of 0.4 N hydrochloric acid physiological saline was injected into the right vas deferens thus exposed. The peritoneum and the skin of the rats were sutured with a suture thread. To prevent operational infection, a kanamycin-containing aqueous solution was sprayed onto the site of the incision, and a physiological saline solution containing cefazolin sodium was injected into the femoral muscle in an amount of 7 mg/kg body weight. The control group refers to untreated rats (normal rats) subjected to neither an incisional operation nor hydrochloric acid injection.
The prostate, bladder and urethra were sampled from the rats of respective groups prepared in 1-1) above (test group, comparative group, and control group) to prepare tissue specimens thereof for the evaluation of change in tissue.
Specifically, the rats of the test group and the comparative group were euthanized by exsanguination under ether anesthesia 6 hours (2 rats per group), 4 days (2 rats per group), or 8 days (2 rats per group) after hydrochloric acid injection. The prostate, bladder and urethral tissues were taken out as a lump, and the tissues were fixed with 4% paraformaldehyde. The rats of the control group were subjected to the same treatment.
The frozen blocks were sliced in a cryostat to a thickness of 5 to 6 μm to prepare slide preparations of the tissue sections. The slide preparations were stained with hematoxylin-eosin (H.E), and the appearance of the tissues was observed under a microscope.
In the figures, sample code N refers to the tissue samples obtained from the control group (nonhydrochloric acid-injected rats), and sample code P refers to the tissue samples obtained from the test group (rats injected with hydrochloric acid beneath the prostatic capsules).
In the figures, sample code Y refers to tissue samples obtained from the comparative group (rats injected with hydrochloric acid into the vas deferens).

[2] = system: bladder function of male Wistar rats; conditions: 8th day of rearing
[3] = 100 μl 0.4 N beneath prostatic capsule
[4] = 100 μl 0.4 N into the vas deferens, 6 hours after injection
[5] = 0.1, 0.2 and 0.4 N beneath prostatic capsule
[6] = 100 μl 0.2 N beneath prostatic capsule

Cl [hydrochloric acid]
urethral and bladder tissue damage extending from the prostate [1, 3]: no evidence of tissue damage
localized bleeding and nerve cell tigrolysis in the stroma of the prostate dorsolateral lobes ([1]; 100 μl 0.4 N beneath prostatic capsule, 6 hours after injection): slight (+) to moderate (++)
hyperplasia and fibrosis of the fibroblast, and inflammatory cellular infiltration in the stroma of the prostate dorsolateral lobes ([1]; 100 μl 0.4 N beneath prostatic capsule, 4 days after injection): moderate (++) to severe (+++)
prostate tissue damage ([1]; 100 μl 0.4 N beneath prostatic capsule, 8 days after injection): still observable
loss of glandular epithelial cells, peeling of epithelium, degeneration/necrosis, and presence of erythrocytes at the glandular cavities of the prostate dorsolateral lobes ([1]; 100 μl 0.4 N injected beneath prostatic capsule of right lateral lobe, 6 hours after injection): slight (+) to moderate (++) to severe (+++)
epithalaxia in the glandular cavities of the prostate dorsolateral lobes ([1]; 100 μl 0.4 N injected into the vas deferens (comparative group), 6 hours after injection): severe (+++)
bleeding in the stromata of the glandular tissues of the ampulla ductus deferentis [1, 4]: severe (+++)
epithalaxia, degeneration/necrosis and bleeding in the glandular cavities of the ampulla ductus deferentis [1, 4]: severe (+++)
localized bleeding in the stroma of the prostate dorsolateral lobes [1, 4]: severe (+++)
prostate tissue damage ([1]; 100 μl 0.4 N into the vas deferens, 4 days after injection): did not exhibit such prostate tissue damage
damage at the glandular tissues of the ampulla ductus deferentis ([1]; 100 μl 0.4 N into the vas deferens, at least 4 days after injection): did not exhibit such damage
development of prostatitis, pathohistological point of view ([1]; injected into the vas deferens of rats (animal model (5))): only to a very slight extent
correlation between concentration and change in the weight of the prostate [2, 5]: no evidence of correlation
ratio of bladder weight to body weight compared with the control group [2, 5]: comparable or significantly higher
ratio of prostate ventral lobe weight to body weight compared with the control group [2, 5]: comparable or significantly higher
weight of the bladder in relation to concentration injected [2, 5]: increased in accordance with the concentration
volume of residual urine compared with the control group ([2]; 100 μl 0.1 N beneath prostatic capsule): no residual urine
urination interval compared with the control group [2, 6]: significantly shorter
volume of residual urine compared with the control group [2, 6]: significantly higher
volume of urine per urination compared with the control group [2, 6]: smaller
urination interval compared with the control group [2, 3]: significantly shorter
volume of urine per urination compared with the control group [2, 3]: smaller
